# Measurements reported in patent publication US7297353B2, “Use of anemonin for treating aseptic inflammations” (priority 2000, dated 2007).
# Entries after “also recorded” stand apart in the source; their conditions may differ. Where two headings read alike, the source gives them in different places.
# Assays:
# [1] = Stability test for prolonged storage; assay type: physicochemical; conditions: anemonin in the present medication
# Text: According to preferred embodiments of the present invention, when the extracted anemonin or anemonin extract liquor is mixed with one or more Chinese herbs or chemical pharmaceuticals, the stability of the anemonin is not affected by the combined Chinese herbs, chemical components contained therein or the pharmaceuticals, and the amenonin can still effectively treat various aseptic inflammations.
# [2] = tested on: murine spleens cells stimulated with LPS; assay: B-cell proliferation, spleen cells stimulated with LPS ([3H]-thymidine uptake); assay type: cell-based, ICR mice; conditions: for [^3H]-TDRincorparation(CPM × 10^−3): LPS 10 μg/ml, 48 hrs
# Method: Fresh spleen cells were obtained from ICR mice (male, 7-9 weeks old), 5×10^5 of spleen cells were cultured in 96-well flat plates with […] of RPMI 1640 media containing 10% FBS, 100 U/ml penicillin and 100 μg/ml streptomyin in a humidified, 37° C., 5% CO2 incubator for 48 hrs. The cultures were either unstimulated, or were stimulated with 5 μg/ml of ConA or 10 μg/ml of LPS to induce T cells or B cells proliferative responses respectively. The compounds were added in cultures with indicated concentrations to test their bioactivities. Profileration was assessed in terms of uptake of [^3H]-thymidine during 6-12 hours pulsing with 20 kBq [^3H]-thymidine/well, then the cells were harvested by a Basic 96 harvester, and counted in a 1540 MicroBeta Trilux (PerkinElmer Life Sciences).
# [3] = tested on: IFN-γ; assay: Cytokine production from splenocytes, Sac stimulation, IFN-γ (ELISA); assay type: cell-based, murine; conditions: 24 h
# Method: (§1) For splenocyte cytokine production assay, 5×10^6 cells per well were inoculated into a 24-well tissue culture plate with ConA (5 mg/L) or Sac (1:10000) stimulation. Different concentrations of Anemonin were added in a final volume of 2 ml. Cells were incubated at 37° C., 5% CO2 for 24 h and supernatants were harvested, IFN-γ, IL-10, IL12 (p40) and IL-2 in supernatants were measured by the sandwich enzyme-linked immunosorbent assay (ELISA) as specified by the manufacturer (BD Bioscience pharmingen, US). Concentrations of the cytokine productions were calculated based on standard curves obtained from serial dilutions of murine cytokines (r IFN-γ, rIL-10, rIL12, rIL-2). As shown in Tables C-3 and C-4, high-dose Anemonin (1-100 μg/ml) inhibited all kinds of cytokine release induced by ConA or Sac.
# [4] = tested on: IL-10; assay: Cytokine production from splenocytes, Sac stimulation, IL-10 (ELISA); assay type: cell-based, murine; conditions: 24 h
# Method: as §1
# [5] = tested on: dimethylbenene-induced ear swelling; assay: Acute ear edema of mice induced by dimethylbenene; assay type: in vivo; conditions: for Ear swellin: 50 μl on ear, two hours after dimethylbenene
# Method: The mice were randomly divided into 5 groups. Thirty minutes and sixty minutes after applying dimethylbenene (50 μl) to the anterior and posterior surfaces of the right ear, 25% ethanol (50 μl), the linimene solutions of anemonin (0.05, 0.5, 5 mg/ml, 50 μl) and FAA (a positive control) were applied on the same ears of mice respectively. The left ear was considered as control. Two hours after dimethylbenene application, mice were killed and both ears were removed. Circular sections were taken, using a 9 mm-diameter borer, and weighed. The increase in weight caused by the irritant was measured by subtracting the weight of the untreated left ear section from that of the treated right ear section.
# [6] = tested on: T-lymphocytes from the whole spleen of mice; assay: ConA-induced responsive proliferation of T-lymphocytes ([3H] thymidine); assay type: cell-based; conditions: for Proliferation of T-lymphocytes ConA stimulation Average of CPM values: ConA at 51 μg/ml, 48 hours
# Method: 5.2.1. Mice were sacrificed by removing spondyle, spleen was cut off in a sterile condition and then ground to obtain single cell suspension. After erythrocytes were got rid of the remained cells were diluted to […] with RPMI-1640 culture solution containing 10% fetal bovine serum.
# 5.2.2. 200 μl solution in total volume (including 100 μl the cell suspension, 50 μl sample and 50 μl ConA or LPS) was dispensed on 96-well plate.
# 50 μl culture solution containing 10% fetal bovine serum, instead of 50 μl sample, was added as negative control, in which the total volume was also 200 μl.
# 5.2.3. The cell was cultured at 37° C. and under 5% CO2 in incubator for 48 hours, and [^3H] thymidine (1.9×10^4 Bq) was added to the plate at 25 μl/well 12 hours before the end of culture.
# 5.2.4. The culture was continued. The plates were then stored at −20° C. in refrigeratory after the culture. The thawed cells were collected to fiberglass membrane (Nitrocellose membrane) with cell collector when detecting. After the addition of Scintillation solution, the quantity of [^3H] thymidine incorporated into DNA of cells was detected by Beta counter (MicroBeta Trilux, PerkinElmer LifeSciences). The proliferation of lymphocytes was indicated by cpm value.
# Effect of the medicament on ConA-induced responsive proliferation of T-lymphocytes was examined, said T-lymphocytes were from the whole spleen of mice. ConA at 51 μg/ml final concentration was used as the stimulator to induce responsive proliferation of T-lymphocytes from the whole spleen of ICR homogenous mice (cultured in vitro for 48 hours).
# [7] = tested on: IFN-γ; assay: Cytokine production from splenocytes, ConA stimulation, IFN-γ (ELISA); assay type: cell-based, murine; conditions: 24 h
# Method: as §1
structure (smiles),measurement,setting,value
"O=C1C=CC2(CCC23C=CC(=O)O3)O1 (centres unmarked) [Anemonin, anemonin]",stability on prolonged storage,[1],at least 5 years
same,[^3H]-TDRincorparation(CPM × 10^−3),[2]; 0.001 μg/ml,52.0 ± 2.27 CPM × 10^−3
same,[^3H]-TDRincorparation(CPM × 10^−3),[2]; 0.01 μg/ml,47.2 ± 3.41 CPM × 10^−3
same,[^3H]-TDRincorparation(CPM × 10^−3),[2]; 0.1 μg/ml,47.5 ± 3.60 CPM × 10^−3
same,[^3H]-TDRincorparation(CPM × 10^−3),[2]; 1 μg/ml,34.4 ± 2.41 CPM × 10^−3
same,[^3H]-TDRincorparation(CPM × 10^−3),[2]; 10 μg/ml,0.11 ± 0.15 CPM × 10^−3
same,[^3H]-TDRincorparation(CPM × 10^−3),[2]; 100 μg/ml,0.17 ± 0.26 CPM × 10^−3
same,B-cell proliferation,[2]; 1-100 μg/ml,significantly inhibited
same,IFN-γ,[3]; 0.001 μg/ml,237 ± 3 pg/mL
same,IFN-γ,[3]; 0.01 μg/ml,230 ± 23 pg/mL
same,IFN-γ,[3]; 0.1 μg/ml,143 ± 0 pg/mL
same,IFN-γ,[3]; 1 μg/ml,95 ± 2 pg/mL
same,IFN-γ,[3]; 10 μg/ml,98 ± 7 pg/mL
same,IFN-γ,[3]; 100 μg/ml,89 ± 2 pg/mL
same,IL-10,[4]; 0.001 μg/ml,1242 ± 46 pg/mL
same,IL-10,[4]; 0.01 μg/ml,1235 ± 19 pg/mL
same,IL-10,[4]; 0.1 μg/ml,1229 ± 9 pg/mL
same,IL-10,[4]; 1 μg/ml,749 ± 64 pg/mL
same,IL-10,[4]; 10 μg/ml,249 ± 0 pg/mL
same,IL-10,[4]; 100 μg/ml,274 ± 18 pg/mL
same,Ear swellin,[5]; 0.05 mg/ml liniment,18 ± 7 mg
same,Ear swellin,[5]; 0.5 mg/ml liniment,16 ± 4 mg
same,Ear swellin,[5]; 5 mg/ml liniment,12 ± 4 mg
same,ear edema formation,[5]; 0.05-5 mg/ml applied,inhibited in a dose-dependent manner
same,inhibitory effect on ear edema,[5]; doses of 2.5-25 μg/ear,statistically significant
same,Proliferation of T-lymphocytes ConA stimulation Average of CPM values,"[6]; 0.001 μg/ml, Table B-4",15466 CPM
same,Proliferation of T-lymphocytes ConA stimulation Average of CPM values,"[6]; 0.01 μg/ml, Table B-4",19386 CPM
same,Proliferation of T-lymphocytes ConA stimulation Average of CPM values,"[6]; 0.1 μg/ml, Table B-4",15284 CPM
same,Proliferation of T-lymphocytes ConA stimulation Average of CPM values,"[6]; 1 μg/ml, Table B-3",8650 CPM
same,Proliferation of T-lymphocytes ConA stimulation Average of CPM values,"[6]; 1 μg/ml, Table B-4",8438 CPM
same,Proliferation of T-lymphocytes ConA stimulation Average of CPM values,"[6]; 10 μg/ml, Table B-3",171 CPM
same,Proliferation of T-lymphocytes ConA stimulation Average of CPM values,"[6]; 10 μg/ml, Table B-4",46 CPM
same,Proliferation of T-lymphocytes ConA stimulation Average of CPM values,"[6]; 100 μg/ml, Table B-3",160 CPM
same,Proliferation of T-lymphocytes ConA stimulation Average of CPM values,"[6]; 100 μg/ml, Table B-4",155 CPM
same,inhibition at 0.001 µg/mL,"[6]; Mus musculus, T-lymphocyte, 0.001 μg/ml, ConA stimulation, Table B-4, read-out: General assess of activity Enhancement/Inhibition",11%
same,inhibition at 0.01 µg/mL,"[6]; Mus musculus, T-lymphocyte, 0.01 μg/ml, ConA stimulation, Table B-4, read-out: General assess of activity Enhancement/Inhibition",-11%
same,inhibition at 0.1 µg/mL,"[6]; Mus musculus, T-lymphocyte, 0.1 μg/ml, ConA stimulation, Table B-4, read-out: General assess of activity Enhancement/Inhibition",13%
same,inhibition at 1 µg/mL,"[6]; Mus musculus, T-lymphocyte, 1 μg/ml, ConA stimulation, Table B-3, read-out: General assess of activity Enhancement/Inhibition",47%
same,inhibition at 1 µg/mL,"[6]; Mus musculus, T-lymphocyte, 1 μg/ml, ConA stimulation, Table B-4, read-out: General assess of activity Enhancement/Inhibition",52%
same,inhibition at 10 µg/mL,"[6]; Mus musculus, T-lymphocyte, 10 μg/ml, ConA stimulation, Table B-3, read-out: General assess of activity Enhancement/Inhibition",99%
same,inhibition at 10 µg/mL,"[6]; Mus musculus, T-lymphocyte, 10 μg/ml, ConA stimulation, Table B-4, read-out: General assess of activity Enhancement/Inhibition",100%
same,inhibition at 100 µg/mL,"[6]; Mus musculus, T-lymphocyte, 100 μg/ml, ConA stimulation, Table B-3, read-out: General assess of activity Enhancement/Inhibition",99%
same,inhibition at 100 µg/mL,"[6]; Mus musculus, T-lymphocyte, 100 μg/ml, ConA stimulation, Table B-4, read-out: General assess of activity Enhancement/Inhibition",99%
same,inhibition of ConA-induced responsive proliferation of lymphocytes,[6]; final concentration range from 0.1 μg/ml to 100 μg/ml,remarkably inhibited; also recorded: sharply inhibited
same,IFN-γ,[7]; 0.001 μg/ml,2405 ± 171 pg/mL
same,IFN-γ,[7]; 0.01 μg/ml,2651 ± 120 pg/mL
same,IFN-γ,[7]; 0.1 μg/ml,2298 ± 4 pg/mL
same,IFN-γ,[7]; 1 μg/ml,508 ± 16 pg/mL
same,IFN-γ,[7]; 10 μg/ml,94 ± 0 pg/mL
same,IFN-γ,[7]; 100 μg/ml,89 ± 3 pg/mL
